#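 Each compound was tested at five concentrations against cells in 96-well plates for 48 hours. At the GI50, growth is halved.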 Calls of active or inactive are those of the source. No stated cut-off is given here; in the data, active = GI50 up to about 1.1 µM and inactive = higher. Where a SMILES comes first, the peptide text is derived from it. The star is where a group is joined. Cbz = O=C(OCc1ccccc1)*
# How the values were obtained:
# Assay in all cases: NCI anticancer screen, dose series, 48 h
# [1] = tested on: MCF7
# [2] = tested on: SR
# [3] = tested on: SNB-75
# [4] = tested on: UO-31
# [5] = tested on: SF-268
# [6] = tested on: OVCAR-5
# [7] = tested on: SK-OV-3
# [8] = tested on: SF-539
# [9] = tested on: A549
# [10] = tested on: LOX IMVI
# [11] = tested on: TK-10
# [12] = tested on: HT-29
# [13] = tested on: DU-145
# [14] = tested on: RPMI-8226
# [15] = tested on: NCI-H460
# [16] = tested on: RXF 393
# [17] = tested on: CCRF-CEM
# [18] = tested on: Hs-578T
# [19] = tested on: KM12
# [20] = tested on: Malme-3M
SMILES,GI50 [1],GI50 [2],GI50 [3],GI50 [4],GI50 [5],GI50 [6],GI50 [7],GI50 [8],GI50 [9],GI50 [10],GI50 [11],GI50 [12],GI50 [13],GI50 [14],GI50 [15],GI50 [16],GI50 [17],GI50 [18],GI50 [19],GI50 [20]
CCOc1ccc2c(ccc(/C=C/c3cc(C)c4cccnc4c3O)[n+]2C)c1,0.115 µM (active),0.153 µM (active),2.29 µM (inactive),8.09 µM (inactive),0.736 µM (active),1.24 µM (inactive),1.8 µM (inactive),0.485 µM (active),1.33 µM (inactive),0.356 µM (active),0.575 µM (active),0.378 µM (active),3.62 µM (inactive),0.818 µM (active),0.281 µM (active),3.71 µM (inactive),0.0673 µM (active),6.82 µM (inactive),0.908 µM (active),1.94 µM (inactive)
Nc1ccc(C(=O)CC(N)C(=O)O)cc1O (stereo not given),> 100 µM (inactive),> 100 µM (inactive),> 100 µM (inactive),> 100 µM (inactive),> 100 µM (inactive),> 100 µM (inactive),31.9 µM (inactive),> 100 µM (inactive),> 100 µM (inactive),> 100 µM (inactive),> 100 µM (inactive),> 100 µM (inactive),> 100 µM (inactive),> 100 µM (inactive),> 100 µM (inactive),> 100 µM (inactive),> 100 µM (inactive),> 100 µM (inactive),> 100 µM (inactive),> 100 µM (inactive)
CC(CCC=O)CCOCc1ccccc1 (stereo not given),2.8 µM (inactive),> 54.5 µM (inactive),> 100 µM (inactive),> 100 µM (inactive),> 100 µM (inactive),> 89.7 µM (inactive),> 100 µM (inactive),> 100 µM (inactive),> 87.5 µM (inactive),49.8 µM (inactive),> 42 µM (inactive),> 100 µM (inactive),> 100 µM (inactive),53.7 µM (inactive),> 100 µM (inactive),> 100 µM (inactive),> 48.5 µM (inactive),> 100 µM (inactive),> 57.1 µM (inactive),> 100 µM (inactive)
COc1ccc2c(c1)CN([C@@H](C)[C@H]1CC[C@H]3[C@@H]4CC[C@H]5C[C@@H](O)CC[C@]5(C)[C@H]4CC[C@]13C)CO2,3.7 µM (inactive),0.321 µM (active),2.37 µM (inactive),1.81 µM (inactive),2.26 µM (inactive),3.13 µM (inactive),1.7 µM (inactive),1.59 µM (inactive),1.76 µM (inactive),1.58 µM (inactive),2.79 µM (inactive),0.964 µM (active),4.68 µM (inactive),0.541 µM (active),1.23 µM (inactive),1.19 µM (inactive),1.85 µM (inactive),1.61 µM (inactive),1.75 µM (inactive),1.53 µM (inactive)
CCOC(=O)c1nc2cc(C(F)(F)F)ccc2nc1Nc1cc(OC)c(OC)c(OC)c1,> 100 µM (inactive),> 100 µM (inactive),> 100 µM (inactive),> 100 µM (inactive),> 100 µM (inactive),> 100 µM (inactive),> 100 µM (inactive),> 100 µM (inactive),> 100 µM (inactive),> 100 µM (inactive),> 100 µM (inactive),> 100 µM (inactive),> 100 µM (inactive),> 100 µM (inactive),> 100 µM (inactive),> 100 µM (inactive),> 100 µM (inactive),> 100 µM (inactive),> 100 µM (inactive),> 100 µM (inactive)
CCCCCCCCCCCCC/C=C(/COCC[N+](C)(C)C)OC(C)=O.CCCCCCCCCCCCCC/C(=C/OCC[N+](C)(C)C)OC(C)=O,1.9 µM (inactive),1.57 µM (inactive),2.54 µM (inactive),14.3 µM (inactive),1.87 µM (inactive),2.44 µM (inactive),4.63 µM (inactive),1.85 µM (inactive),1.71 µM (inactive),0.377 µM (active),1.48 µM (inactive),0.356 µM (active),4.97 µM (inactive),1.3 µM (inactive),0.63 µM (active),0.716 µM (active),1.76 µM (inactive),1.91 µM (inactive),1.46 µM (inactive),5.68 µM (inactive)
CCOC(=O)CCC(NC(=O)C(Cc1ccccc1)NC(=O)OCc1ccccc1)C(=O)OCC (stereo not drawn) (Cbz-Phe-Glu(OEt)-OEt; configuration not given here),19.2 µM (inactive),27 µM (inactive),18.7 µM (inactive),17.4 µM (inactive),16.2 µM (inactive),16.7 µM (inactive),16.6 µM (inactive),20.3 µM (inactive),18.8 µM (inactive),14.7 µM (inactive),19.4 µM (inactive),20.2 µM (inactive),6.58 µM (inactive),35 µM (inactive),20.5 µM (inactive),17.9 µM (inactive),31.3 µM (inactive),14.8 µM (inactive),17 µM (inactive),17.4 µM (inactive)
